PubChem BioAssay (NCI)
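These data come from cells grown in 96-well plates and exposed to compound for 48 hours at five concentrations. GI50: concentration for 50% inhibition of growth. At the TGI there is no net growth.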

Legend:
Test in all cases: DTP human tumour cell line panel, 48 h
SF-539 CNS = test system: SF-539 CNS
NCI-H460 lung = test system: NCI-H460 lung
SK-MEL-28 melanoma = test system: SK-MEL-28 melanoma
HL-60(TB) leukemia = test system: HL-60(TB) leukemia
MDA-MB-231 breast = test system: MDA-MB-231 breast
A549 NSCLC = test system: A549 NSCLC
RXF 393 renal = test system: RXF 393 renal
M14 melanoma = test system: M14 melanoma
TK-10 renal = test system: TK-10 renal
SR leukemia = test system: SR leukemia
MOLT-4 leukemia = test system: MOLT-4 leukemia
RPMI-8226 leukemia = test system: RPMI-8226 leukemia
NCI-H23 lung = test system: NCI-H23 lung
SK-OV-3 ovarian = test system: SK-OV-3 ovarian
CCRF-CEM leukemia = test system: CCRF-CEM leukemia
SF-295 CNS = test system: SF-295 CNS
IGROV1 ovarian = test system: IGROV1 ovarian
NCI/ADR-RES ovarian = test system: NCI/ADR-RES ovarian
COLO 205 colon = test system: COLO 205 colon
CAKI-1 renal = test system: CAKI-1 renal
HOP-62 NSCLC = test system: HOP-62 NSCLC
NCI-H522 lung = test system: NCI-H522 lung
UO-31 renal = test system: UO-31 renal
T-47D breast = test system: T-47D breast
OVCAR-4 ovarian = test system: OVCAR-4 ovarian
MDA-MB-435 = test system: MDA-MB-435

## O=C1c2c(c3c4cc(Br)ccc4[nH]c3c3ccc4ccccc4c23)C(=O)N1CCN1CCNCC1
SF-539 CNS
  GI50: 1.92 µM
  TGI: 3.82 µM
NCI-H460 lung
  GI50: 2.38 µM
  TGI: 10.2 µM
SK-MEL-28 melanoma
  GI50: 15.7 µM
  TGI: 35.1 µM
HL-60(TB) leukemia
  GI50: 6.78 µM
  TGI: 26 µM
MDA-MB-231 breast
  GI50: 2.34 µM
  TGI: 6.32 µM
A549 NSCLC
  GI50: 2.6 µM
  TGI: 9.13 µM
RXF 393 renal
  GI50: 6.97 µM
  TGI: 23.4 µM
M14 melanoma
  GI50: 10.7 µM
  TGI: 25.7 µM
TK-10 renal
  GI50: 19.8 µM
  TGI: 38.1 µM
SR leukemia
  GI50: 0.507 µM
  TGI: 2.79 µM
MOLT-4 leukemia
  GI50: 1.04 µM
  TGI: 4.14 µM
RPMI-8226 leukemia
  GI50: 2.19 µM
  TGI: 5.26 µM
NCI-H23 lung
  GI50: 2.96 µM
  TGI: 12.7 µM
SK-OV-3 ovarian
  GI50: 16.2 µM
  TGI: 30.8 µM
CCRF-CEM leukemia
  GI50: 0.947 µM
  TGI: 6.8 µM
SF-295 CNS
  GI50: 13.9 µM
  TGI: 32.9 µM
IGROV1 ovarian
  GI50: 11.8 µM
  TGI: 33.7 µM
NCI/ADR-RES ovarian
  GI50: 3.66 µM
  TGI: 26.7 µM
COLO 205 colon
  GI50: 6.51 µM
  TGI: 27.7 µM
CAKI-1 renal
  GI50: 10.5 µM
  TGI: 24.6 µM
HOP-62 NSCLC
  GI50: 6.28 µM
  TGI: 26.9 µM
NCI-H522 lung
  GI50: 1.67 µM
  TGI: 7.46 µM
UO-31 renal
  GI50: 11.2 µM
  TGI: 27.2 µM
T-47D breast
  GI50: 4.3 µM
  TGI: 26 µM
OVCAR-4 ovarian
  GI50: 12.3 µM
  TGI: 33.9 µM
MDA-MB-435
  GI50: 3.12 µM
  TGI: 10.8 µM
